From patent publication US20040019026A1, “Compounds useful for treating hypertriglyceridemia” (priority 2000, published 2004)

Tests used:
[1] = background statement; cited from earlier work
Female CD-1 mice = test: Dexamethasone-induced thymic and splenic atrophy, anti-glucocorticoid effect (Example 4); type: in vivo; conditions: 1.6 mg dexamethasone s.c., sacrifice about 24 hours later
Procedure: Female CD-1 mice were obtained from Charles River Laboratories, Kingston, N.Y. at 43-45 days of age. The mice were housed five per cage in plastic shoebox cages on corn cob bedding in the Fels Animal Facility at 72°±2° F. with 50%±5% humidity and twelve hours of alternate light and darkness. The mice had ad libitum access to Purina chain 5015 and acidified water for pretreatment.
Six days later, the mice were weighed, earmarked and redistributed into six groups for treatment: 1) a control group, 2) a group treated with dexamethasone (“DEX”), a glucocorticoid which induces thymic and splenic atrophy, 3) a group treated with 200 mg/kg 16α-fluoro-5-androsten-17-one (hereinafter “drug”), 4) a group treated with 400 mg/kg of, 5) a group treated with dexamethasone and 200 mg/kg drug and 6) a group treated with dexamethasone and 400 mg/kg drug. The treatment in the groups were as follows and were conducted simuitaneously.
The control group was intubated with 0.2 mL of sesame oil for three days. On the third day after commencement of the intubation, the mice were injected subcutaneously with 0.05 mL of absolute ethanol one hour after the last treatment with sesame oil.
The second group was intubated with 0.2 mL of sesame oil for three days. On the third day after the commencement of the intubation, the mice were injected subcutaneously with 1.6 mg of dexamethasone dissolved in 0.05 mL of absolute ethanol approximately one hour after the last treatment with sesame oil.
The third and fourth groups were intubated with 200 mg/Kg and 400 mg/Kg drug, respectively, suspended in 0.2 mL of sesame oil for three days. After commencement of the intubation, the mice were injected subcutaneously with 0.05 mL of absolute ethanol approximately one hour after the last treatment with sesame oil.
The fifth and sixth groups were intubated with 200 mg/kg and 400 mg/kg, respectively, of drug, suspended in 0.2 mL of sesame oil for three days. On the third day after commencement of the intubation, the mice were injected subcutaneously with 1.6 mg of dexamethasome dissolved in 0.05 mL of absolute ethanol approximately one hour after the last treatment with sesame oil.
All of the mice were sacrificed by an overdose of CO2 approximately 24 hours after the injection of ethanol (first, third and fourth groups) or approximately 24 hours after injection with dexamethasone (second, fifth and sixth groups). The mice were weighed and the thymus was excised, cleaned of adventia, rinsed in phosphate-buffered saline (P.B.S.), blotted and weighed. The spleen was also excised, cleaned, rinsed, blotted and weighed.

SMILES: Cc1ccc(C)c(OCCCC(C)(C)C(=O)O)c1 [Gemfibrozil, gemfibrozil]
- Effect on HDL levels [1]: modestly raises HDL levels
- Effect on insulin resistance [1]: no effect on insulin resistance
- Lowering of triglycerides [1]: 25-35%

SMILES: C[C@@H]1C[C@H]2[C@@H]3CCC4=CC(=O)C=C[C@]4(C)[C@@]3(F)[C@@H](O)C[C@]2(C)[C@@]1(O)C(=O)CO [DEX, dexamethasone, reference compound]
- Spleen Wt. (Female CD-1 mice): 45.2 ± 7.5 mg
- Thymus Wt. (Female CD-1 mice): 36.8 ± 7.1 mg

SMILES: O=C(O)c1cccnc1 [Nicotinic acid, nicotinic acid]
- Effect on insulin resistance [1]: worsens insulin resistance
- Side effects [1]: intense flushing and associated pruritus
